Legend:
[1] = Microsomal stability assay, mouse; assay type: in vitro ADME; conditions: 1 μM test compound, unit printed in b356 only
Experimental: The liver microsomal incubation mixture was composed of liver microsomes (with a concentration of 0.5 mg microsomal protein/ml), the test compound (1 μM), MgCl2 (3 mM), EDTA (1 mM) in potassium phosphate buffer (100 mM, pH 7.4). Control substrates used were Midazolam and Ketanserin. The reaction was initiated with the addition of an NADPH regeneration solution (1.3 mM NADPH) and maintained at 37° C. with shaking. At five sequential time points ranging from 0 to 45 min, aliquots of the mixture (50 μL) were removed and quenched with acetonitrile (100 μL) containing an internal standard control (imipramine) Samples were analyzed after vortexing and centrifugation by liquid chromatography-mass spectrometry (LC-MS/MS). The in vitro t1/2 was then calculated and clearance followed literature.

AGS gastric cell line = experiment: Annexin V/PI apoptosis assay by flow cytometry, AGS; assay type: cell-based, human; conditions: up to 10 μM, 48 h
Experimental: In 6-well plates, 1×10^5 cells/mL were added into each well. After 24 h, sequential concentrations of DMSO and 4 based were administered and the plates were incubated for 48 h. The supernatant and adherent cells were collected and centrifugated. Each dose was done in triplicate, with each sample composing two wells. For apoptosis analysis, the supernatant was discarded after centrifugation and the pellet washed with PBS twice. Then, BD Annexin V-FITC/PI used to stain the cells for analysis via flow cytometry on the Gallios machine. For cell cycle analysis, after washing with PBS, cells were fixed with ethanol and incubated. They, were treated with RNase enzyme and analyzed.

[2] = test system: U251 brain cancer cell line; experiment: Cell morphology; assay type: cell-based, human; conditions: over the course of 48 h
PTEN [3] = experiment: Western blot, PTEN expression; assay type: cell-based, human
Experimental: (§1) Proteins are collected from cultured cells and lysed with 10× Lysis Buffer (Cell Signaling) freshly supplemented with a complete protease inhibitor cocktail and phosphatase inhibitors (Sigma). Bradford assay is used to measure protein concentration. Proteins are separated by polyacrylamide gel (Bio-rad) electrophoresis and were transferred to a 0.2 μm nitrocellulose membrane (Bio-rad). Quantification of protein expression was conducted using the image analysis software ImageJ.

PTEN [4] = experiment: Proteomics (RPPA), PTEN expression; assay type: cell-based, human; parameters: dose or concentration left out as unconfirmed; conditions: U251
Experimental: (§2) Proteomics analysis was conducted at the Reverse Phase Protein Array Core facility at MD Anderson Cancer Center. Briefly, controls and treated samples were analyzed in triplicate for 486 unique antibodies. The outputs were then normalized for protein loading and transformed to the linear value, and the normalized data was logy transformed (log2(x+1)) and sorted by FDR-adjusted p-values with a significance level of p<0.05. Differentially expressed proteins between groups were identified using the moderated t-test from LIMMA package. […] Analyses and graphical representations were carried out in R. When preparing the data for analysis, the loge fold change was calculated and adjusted p-value was used for analysis. Gene symbols were converted using the DAVID bioinformatics resource and the clusterProfiler data visualization and analysis package was used for pathway enrichment analysis. For pathway analysis, the Hallmark gene set and Gene Ontology was used for gene set and pathway enrichment.

PDGF = experiment: Western blot, PDGF expression; assay type: cell-based, human; conditions: LN229 and U251 brain cancer cell lines
Experimental: as §1

Dicer = experiment: Western blot, Dicer expression; assay type: cell-based, human; conditions: AsPC1, AGS, U251, LN229
Experimental: as §1

Drosha = experiment: Western blot, Drosha expression; assay type: cell-based, human; conditions: AsPC1, AGS, U251, LN229
Experimental: as §1

AsPC1 cell line = experiment: Migration assay, AsPC1; assay type: cell-based, human; conditions: vs DMSO
miR-10b = experiment: qRT-PCR of miR-10b in cerebral organoids co-cultured with brain cancer cells; assay type: cell-based, human; conditions: 10 μM, 48 h
From the text: For co-culturing with cerebral organoids, the brain cancer cell lines U251 and LN229 were transduced with an RFP lentiviral vector expressing mCherry and luciferase, and sorted twice via an Aria Influx Cell Sorter.
Human induced pluripotent stem cell (iPSC) derived cerebral organoids were obtained, courtesy of Dr. Sanjay Singh and Dr. Frederick Lang in the Department of Neurosurgery at MD Anderson Cancer Center. Organoids were maintained in a specialized neural based media on a shaker inside a 37° C. incubator. After maturation, organoids were moved to 24-well ultra-low attachment plates, and individually co-cultured with 5×10^5−1×10^6 cells from brain cancer cell lines for approximately 48-72 h, until RFP signal was clear on the surface of the organoid, indicating cell attachment. Organoids were then moved to 6 well plates and grouped into triplicates within the well. The treatment regimen of control, and 4 was started, at an analogous schedule to in vitro experiments. For fixation and embedding for in situ hybridization, the organoids were processed using 4% PFA and placed in OCT in −80° C. for sectioning.

[5] = test system: proteins on the PI3K/AKT pathway; experiment: Reverse phase protein array (RPPA), PI3K/AKT pathway; assay type: cell-based, human; conditions: U251; 10 μM (FIG. 23); p<0.01
Experimental: as §2

[6] = mouse, liver microsomes, pH 7.4, mouse liver microsomes

CLint ([1]; mouse liver microsomes): 58.9 mL/min/kg
Half-life ([1]; mouse liver microsomes): 92.8 min
CLint scaled at 1 μM [1, 6]: 58 mL/min/kg
half-life at 1 μM [1, 6]: 92 min
SMILES: Cc1ccc(F)c(NC(=O)Nc2ccc(-c3cccc4cn[nH]c34)cc2)c1 [Example 4, 1-(4-(1H-indazol-7-yl)phenyl)-3-(2-fluoro-5-methylphenyl)urea]
apoptotic cells (AGS gastric cell line): gradual increase
morphology of the cells [2]: significant change in the morphology
PTEN expression (Western blot) (PTEN [3]; LN229 brain cancer cell line): upregulation of PTEN
PTEN expression (Western blot) (PTEN [3]; U251 brain cancer cell line): upregulation of PTEN
PTEN expression (proteomics) (PTEN [4]): significantly upregulated
PDGF expression (Western blot) (PDGF): low to very slight variations
Dicer expression (Western blot) (Dicer): little to no variation
Drosha expression (Western blot) (Drosha): little to no variation
migration (AsPC1 cell line): decreased migration
miR-10b levels (qRT-PCR) (miR-10b; cerebral organoids co-cultured with LN229): Significant downregulation of miR-10b
miR-10b levels (qRT-PCR) (miR-10b; cerebral organoids co-cultured with U251): Significant downregulation of miR-10b
expression of proteins on the PI3K/AKT pathway (RPPA) [5]: ten of the twelve proteins showing significant downregulation

— US20230145868A1, “UREA INHIBITORS OF MICRO-RNA” (Board of Regents, The University of Texas System, priority 2020, published 2023)
